Starred links: 1 amine or outer side, 2 acyl side, 3 side chain; linkers in the order of their positions; H or OH if unused. Non-standard residues stand in square brackets, D forms with d. Residues, ends and D or L forms follow the SMILES beside them. Groups on a side chain read outwards from the residue. No end group written: not given here. *: point of attachment. Phe(4-CH2NH2) = NCc1ccc(C[C@H](N)C(=O)O)cc1; C18 diacid = O=C(O)CCCCCCCCCCCCCCCCC(=O)*; C16 diacid = O=C(O)CCCCCCCCCCCCCCC(=O)*; γGlu = O=C(O)[C@H](CCC(=O)[*:2])N[*:1]; Met(O2) = CS(=O)(=O)CC[C@H](N)C(=O)O; αMeL = CC(C)C[C@](C)(N)C(=O)O; AEEA = NCCOCCOCC(=O)O; Aib = CC(C)(N)C(=O)O
Assays:
[1] = Duration of action in DIO mice: body weight after a single sc dose; format: in vivo; conditions: single sc dose at day zero, compared to liraglutide and semaglutide (FIG. 1A)
Protocol: (§1) In this example, the duration of action of several of the peptides or co-agonist peptides was evaluated in diet-induced obese (DIO) mice. The duration of action of the peptides were compared to the duration of action of Semaglutide (sema) and Liraglutide (lira). The peptides tested were SEQ ID NOs: 2, 19, 28, 29, and 33 (Seq 2, Seq 19, Seq 28, Seq 29, and Seq 33, respectively).

[2] = Duration of action in DIO mice: food intake after a single sc dose; format: in vivo; conditions: single sc dose at day zero, compared to liraglutide and semaglutide (FIG. 1B)
Protocol: as §1

human GCGR = target: T1, human GCGR (Homo sapiens, UniProt P47871); experiment: cAMP activity assay, cells expressing human GCGR; format: cell-based; conditions: for EC50: cAMP production, cells expressing human GCGR, assay buffer with or without 20% human serum (not stated which), read-out: GCGR EC50 human; for hGCGR/hGLP1R (hTone): ratio of human GCGR EC50 to human GLP1R EC50
T1 construct: expressed in transfected cells; kept under Blasticidin and Hygromycin selection
Summary of the method: (§2)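 Peptides as 10-point titrations from DMSO tested on cells expressing human GLP1R or GCGR. cAMP measured by luminescent kit after overnight room-temperature incubation in the dark. EC50 from four-parameter logistic fit; native GLP-1 and glucagon as controls.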

human GLP1R = target: T2, human GLP1R (Homo sapiens, UniProt P43220); experiment: cAMP activity assay, cells expressing human GLP1R; format: cell-based; conditions: cAMP production, assay buffer with or without 20% human serum (not stated which)
T2 construct: expressed in transfected cells; kept under Blasticidin and Hygromycin selection
Summary of the method: as §2

T2 sequence (P43220 24-463): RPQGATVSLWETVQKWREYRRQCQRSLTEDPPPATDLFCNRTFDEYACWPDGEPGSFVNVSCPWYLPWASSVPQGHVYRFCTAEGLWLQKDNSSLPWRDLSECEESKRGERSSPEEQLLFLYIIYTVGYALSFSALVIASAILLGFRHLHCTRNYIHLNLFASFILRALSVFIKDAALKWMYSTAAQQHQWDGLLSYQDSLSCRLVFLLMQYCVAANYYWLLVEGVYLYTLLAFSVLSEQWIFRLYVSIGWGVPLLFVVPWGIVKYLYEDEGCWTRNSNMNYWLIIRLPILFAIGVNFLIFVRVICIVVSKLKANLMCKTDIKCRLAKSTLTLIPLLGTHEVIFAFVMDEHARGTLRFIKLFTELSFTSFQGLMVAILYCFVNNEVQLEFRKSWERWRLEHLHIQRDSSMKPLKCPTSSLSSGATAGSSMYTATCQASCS
T1 sequence (P47871 26-477): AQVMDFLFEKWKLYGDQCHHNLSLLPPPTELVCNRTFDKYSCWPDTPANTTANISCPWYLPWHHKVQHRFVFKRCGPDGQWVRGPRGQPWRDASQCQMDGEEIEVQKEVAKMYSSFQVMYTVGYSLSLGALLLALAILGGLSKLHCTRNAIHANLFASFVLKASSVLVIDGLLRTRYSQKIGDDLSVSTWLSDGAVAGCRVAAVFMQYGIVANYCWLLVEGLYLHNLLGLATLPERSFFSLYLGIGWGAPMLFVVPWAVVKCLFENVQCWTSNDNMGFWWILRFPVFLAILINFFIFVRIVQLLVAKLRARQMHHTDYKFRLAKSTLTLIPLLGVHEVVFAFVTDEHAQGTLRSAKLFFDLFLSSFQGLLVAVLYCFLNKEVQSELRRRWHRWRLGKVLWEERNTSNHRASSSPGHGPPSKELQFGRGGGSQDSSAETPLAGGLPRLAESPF

Compound	change in body weight over four days [1]	change in food intake over four days [2]	EC50 (human GCGR)	hGCGR/hGLP1R (hTone) (human GCGR)	EC50 (human GLP1R)
HsQGTFTSDYSKYLDARAAK( ? -γE-C16—OH)DFVQWLLDT—NH2 (H[dS]QGTFTSDYSKYLDARAAK([AEEA-AEEA-γGlu-C16 diacid])DFVQWLLDT-NH2; N-terminus assumed; SMILES CC(C)C[C@H](NC(=O)[C@H](Cc1ccc(O)cc1)NC(=O)[C@H](CCCCN)NC(=O)[C@H](CO)NC(=O)[C@H](Cc1ccc(O)cc1)NC(=O)[C@H](CC(=O)O)NC(=O)[C@H](CO)NC(=O)[C@@H](NC(=O)[C@H](Cc1ccccc1)NC(=O)[C@@H](NC(=O)CNC(=O)[C@H](CCC(N)=O)NC(=O)[C@@H](CO)NC(=O)[C@@H](N)Cc1c[nH]cn1)[C@@H](C)O)[C@@H](C)O)C(=O)N[C@@H](CC(=O)O)C(=O)N[C@@H](C)C(=O)N[C@@H](CCCNC(=N)N)C(=O)N[C@@H](C)C(=O)N[C@@H](C)C(=O)N[C@@H](CCCCNC(=O)COCCOCCNC(=O)COCCOCCNC(=O)CC[C@H](NC(=O)CCCCCCCCCCCCCCC(=O)O)C(=O)O)C(=O)N[C@@H](CC(=O)O)C(=O)N[C@@H](Cc1ccccc1)C(=O)N[C@H](C(=O)N[C@@H](CCC(N)=O)C(=O)N[C@@H](Cc1c[nH]c2ccccc12)C(=O)N[C@@H](CC(C)C)C(=O)N[C@@H](CC(C)C)C(=O)N[C@@H](CC(=O)O)C(=O)N[C@H](C(N)=O)[C@@H](C)O)C(C)C) [SEQ ID NO: 2]	more pronounced and sustained change in body weight	more sustained reduction in food intake	–	–	–
CC(C)C[C@H](NC(=O)[C@H](Cc1ccc(O)cc1)NC(=O)[C@H](CCCCN)NC(=O)[C@H](CO)NC(=O)[C@H](Cc1ccc(CNC(=O)COCCOCCNC(=O)COCCOCCNC(=O)CC[C@H](NC(=O)CCCCCCCCCCCCCCC(=O)O)C(=O)O)cc1)NC(=O)[C@H](CC(=O)O)NC(=O)[C@H](CO)NC(=O)[C@@H](NC(=O)[C@H](Cc1ccccc1)NC(=O)[C@@H](NC(=O)CNC(=O)[C@H](CCC(N)=O)NC(=O)C(C)(C)NC(=O)[C@@H](N)Cc1c[nH]cn1)[C@@H](C)O)[C@@H](C)O)C(=O)N[C@@H](CC(=O)O)C(=O)N[C@@H](C)C(=O)N[C@@H](CCCNC(=N)N)C(=O)N[C@@H](C)C(=O)N[C@@H](C)C(=O)N[C@@H](CCC(N)=O)C(=O)N[C@@H](CC(=O)O)C(=O)N[C@@H](Cc1ccccc1)C(=O)N[C@H](C(=O)N[C@@H](CCC(N)=O)C(=O)N[C@@H](Cc1c[nH]c2ccccc12)C(=O)N[C@@H](CC(C)C)C(=O)N[C@@H](CCS(C)(=O)=O)C(=O)N[C@@H](CC(=O)O)C(=O)N[C@H](C(N)=O)[C@@H](C)O)C(C)C [compound 12] (H-H[Aib]QGTFTSD[Phe(4-CH2NH2)]([AEEA-AEEA-γGlu-C16 diacid])SKYLDARAAQDFVQWL[Met(O2)]DT-NH2; N-terminus assumed)	–	–	0.14 nM	1.89	0.07 nM
CC(C)C[C@H](NC(=O)[C@H](Cc1ccc(O)cc1)NC(=O)[C@H](CCCCN)NC(=O)[C@H](CO)NC(=O)[C@H](Cc1ccc(O)cc1)NC(=O)[C@H](CC(=O)O)NC(=O)[C@H](CO)NC(=O)[C@@H](NC(=O)[C@H](Cc1ccccc1)NC(=O)[C@@H](NC(=O)CNC(=O)[C@H](CCC(N)=O)NC(=O)C(C)(C)NC(=O)[C@@H](N)Cc1c[nH]cn1)[C@@H](C)O)[C@@H](C)O)C(=O)N[C@@H](CC(=O)O)C(=O)N[C@@H](C)C(=O)N[C@@H](CCCNC(=N)N)C(=O)N[C@@H](C)C(=O)N[C@@H](C)C(=O)N[C@@H](CCC(N)=O)C(=O)N[C@@H](CC(=O)O)C(=O)N[C@@H](Cc1ccccc1)C(=O)N[C@H](C(=O)N[C@@H](CCC(N)=O)C(=O)N[C@@H](Cc1c[nH]c2ccccc12)C(=O)N[C@@H](CC(C)C)C(=O)N[C@@H](CCS(C)(=O)=O)C(=O)N[C@@H](Cc1ccc(CNC(=O)COCCOCCNC(=O)COCCOCCNC(=O)CC[C@H](NC(=O)CCCCCCCCCCCCCCCCC(=O)O)C(=O)O)cc1)C(=O)N[C@H](C(N)=O)[C@@H](C)O)C(C)C [compound 77] (H-H[Aib]QGTFTSDYSKYLDARAAQDFVQWL[Met(O2)][Phe(4-CH2NH2)]([AEEA-AEEA-γGlu-C18 diacid])T-NH2; N-terminus assumed)	–	–	1.09 nM	2.3	0.47 nM
CC(C)C[C@H](NC(=O)[C@H](Cc1c[nH]c2ccccc12)NC(=O)[C@H](CCC(N)=O)NC(=O)[C@@H](NC(=O)[C@H](Cc1ccccc1)NC(=O)[C@H](CC(=O)O)NC(=O)[C@H](CCC(N)=O)NC(=O)[C@H](C)NC(=O)[C@H](C)NC(=O)[C@H](CCCNC(=N)N)NC(=O)C(C)(C)NC(=O)[C@H](CC(=O)O)NC(=O)[C@H](CC(C)C)NC(=O)[C@H](Cc1ccc(O)cc1)NC(=O)[C@H](Cc1ccc(CNC(=O)COCCOCCNC(=O)COCCOCCNC(=O)CC[C@H](NC(=O)CCCCCCCCCCCCCCC(=O)O)C(=O)O)cc1)NC(=O)[C@H](CO)NC(=O)[C@H](Cc1ccc(O)cc1)NC(=O)[C@H](CC(=O)O)NC(=O)[C@H](CO)NC(=O)[C@@H](NC(=O)[C@H](Cc1ccccc1)NC(=O)[C@@H](NC(=O)CNC(=O)[C@H](CCC(N)=O)NC(=O)C(C)(C)NC(=O)[C@@H](N)Cc1c[nH]cn1)[C@@H](C)O)[C@@H](C)O)C(C)C)C(=O)N[C@@H](CCS(C)(=O)=O)C(=O)N[C@@H](CC(=O)O)C(=O)N[C@H](C(N)=O)[C@@H](C)O [compound 25] (H-H[Aib]QGTFTSDYS[Phe(4-CH2NH2)]([AEEA-AEEA-γGlu-C16 diacid])YLD[Aib]RAAQDFVQWL[Met(O2)]DT-NH2)	–	–	0.32 nM	14.00	0.02 nM
CC(C)C[C@H](NC(=O)[C@H](Cc1ccc(O)cc1)NC(=O)[C@H](CCCCN)NC(=O)[C@H](CO)NC(=O)[C@H](Cc1ccc(O)cc1)NC(=O)[C@H](CC(=O)O)NC(=O)[C@H](CO)NC(=O)[C@@H](NC(=O)[C@H](Cc1ccccc1)NC(=O)[C@@H](NC(=O)CNC(=O)[C@H](CCC(N)=O)NC(=O)C(C)(C)NC(=O)[C@@H](N)Cc1c[nH]cn1)[C@@H](C)O)[C@@H](C)O)C(=O)N[C@@H](CC(=O)O)C(=O)N[C@@H](C)C(=O)N[C@@H](CCCNC(=N)N)C(=O)N[C@@H](C)C(=O)N[C@@H](C)C(=O)N[C@@H](CCC(N)=O)C(=O)N[C@@H](Cc1ccc(CNC(=O)COCCOCCNC(=O)COCCOCCNC(=O)CC[C@H](NC(=O)CCCCCCCCCCCCCCCCC(=O)O)C(=O)O)cc1)C(=O)N[C@@H](Cc1ccccc1)C(=O)N[C@H](C(=O)N[C@@H](CCC(N)=O)C(=O)N[C@@H](Cc1c[nH]c2ccccc12)C(=O)N[C@@H](CC(C)C)C(=O)N[C@@H](CC(C)C)C(=O)N[C@@H](CC(=O)O)C(=O)N[C@H](C(N)=O)[C@@H](C)O)C(C)C [compound 32] (H-H[Aib]QGTFTSDYSKYLDARAAQ[Phe(4-CH2NH2)]([AEEA-AEEA-γGlu-C18 diacid])FVQWLLDT-NH2; N-terminus assumed)	–	–	0.07 nM	2.52	0.028 nM
CC(C)C[C@H](NC(=O)[C@H](Cc1ccc(O)cc1)NC(=O)[C@H](CCCCN)NC(=O)[C@H](CO)NC(=O)[C@H](Cc1ccc(O)cc1)NC(=O)[C@H](CC(=O)O)NC(=O)[C@H](CO)NC(=O)[C@@H](NC(=O)[C@H](Cc1ccccc1)NC(=O)[C@@H](NC(=O)CNC(=O)[C@H](CCC(N)=O)NC(=O)C(C)(C)NC(=O)[C@@H](N)Cc1c[nH]cn1)[C@@H](C)O)[C@@H](C)O)C(=O)N[C@@H](CC(=O)O)C(=O)N[C@@H](C)C(=O)N[C@@H](CCCNC(=N)N)C(=O)N[C@@H](C)C(=O)N[C@@H](C)C(=O)N[C@@H](CCCCNC(=O)COCCOCCNC(=O)COCCOCCNC(=O)CC[C@H](NC(=O)CCCCCCCCCCCCCCC(=O)O)C(=O)O)C(=O)N[C@@H](CC(=O)O)C(=O)N[C@@H](Cc1ccccc1)C(=O)N[C@H](C(=O)N[C@@H](CCC(N)=O)C(=O)N[C@@H](Cc1c[nH]c2ccccc12)C(=O)N[C@@](C)(CC(C)C)C(=O)N[C@@H](CCS(C)(=O)=O)C(=O)N[C@@H](CC(=O)O)C(=O)N[C@H](C(N)=O)[C@@H](C)O)C(C)C [compound 40] (H-H[Aib]QGTFTSDYSKYLDARAAK([AEEA-AEEA-γGlu-C16 diacid])DFVQW[αMeL][Met(O2)]DT-NH2)	–	–	0.65 nM	10.39	0.06 nM
CC(C)C[C@H](NC(=O)[C@H](Cc1ccc(O)cc1)NC(=O)[C@H](CCCCN)NC(=O)[C@H](CO)NC(=O)[C@H](Cc1ccc(O)cc1)NC(=O)[C@H](CC(=O)O)NC(=O)[C@H](CO)NC(=O)[C@@H](NC(=O)[C@H](Cc1ccccc1)NC(=O)[C@@H](NC(=O)CNC(=O)[C@H](CCC(N)=O)NC(=O)[C@@H](CO)NC(=O)[C@@H](N)Cc1c[nH]cn1)[C@@H](C)O)[C@@H](C)O)C(=O)N[C@@H](CC(=O)O)C(=O)N[C@@H](CCC(=O)O)C(=O)N[C@@H](CCCNC(=N)N)C(=O)N[C@@H](C)C(=O)N[C@@H](C)C(=O)N[C@@H](CCC(N)=O)C(=O)N[C@@H](CCCCNC(=O)COCCOCCNC(=O)COCCOCCNC(=O)CC[C@H](NC(=O)CCCCCCCCCCCCCCC(=O)O)C(=O)O)C(=O)N[C@@H](Cc1ccccc1)C(=O)N[C@H](C(=O)N[C@@H](CCC(N)=O)C(=O)N[C@@H](Cc1c[nH]c2ccccc12)C(=O)N[C@@H](CC(C)C)C(=O)N[C@@H](CCS(C)(=O)=O)C(=O)N[C@@H](CC(=O)O)C(=O)N[C@H](C(N)=O)[C@@H](C)O)C(C)C [compound 16] (H-H[dS]QGTFTSDYSKYLDERAAQK([AEEA-AEEA-γGlu-C16 diacid])FVQWL[Met(O2)]DT-NH2)	–	–	0.03 nM	0.09	0.31 nM
